Structures can show the parent of a compound that is named as a salt.
Target: T1, SYK (Homo sapiens, UniProt P43405)
T1 construct: Recombinant proteins SYK FL was produced at NMS via baculo virus infection in insect cells; His; GST; made in house; host or cells: insect cells (baculovirus)
Experiment: Biochemical kinase inhibition assay on SYK, KinaseGlo assay format
Settings: Table A; KinaseGlo format, pre-activated SYK 2.5 nM, ATP 2.5 μM, substrate BioDBn*327 125 uM, 60 minutes at rt; read-out: IC50 (μM) Kglo

SMILES	IC50 [µM]
Cc1cc(C)cc(Nc2nccc(-c3cc(C(=O)NC(C)C)n(C)n3)n2)c1 [Example 4, 3-{2-[(3,5-dimethylphenyl)amino]pyrimidin-4-yl}-1-methyl-N-(propan-2-yl)-1H-pyrazole-5-carboxamide]	0.111
Cc1cc(C)cc(Nc2nccc(-c3cc(C(=O)N(C)CCN(C)C)n(C)n3)n2)c1 [Example 5, N-[2-(dimethylamino)ethyl]-3-{2-[(3,5-dimethylphenyl)amino]pyrimidin-4-yl}-N,1-dimethyl-1H-pyrazole-5-carboxamide]	0.084
Cc1cc(C)cc(Nc2nccc(-c3cc(C(=O)NC4CNC4)n(C)n3)n2)c1 [Example 8, N-(azetidin-3-yl)-3-{2-[(3,5-dimethylphenyl)amino]pyrimidin-4-yl}-1-methyl-1H-pyrazole-5-carboxamide trifluoroacetate]	0.282
Cc1cc(C)cc(Nc2nccc(-c3cc(C(=O)NCCN4CCOCC4)n(C)n3)n2)c1 [Example 9, 3-{2-[(3,5-dimethylphenyl)amino]pyrimidin-4-yl}-1-methyl-N-[2-(morpholin-4-yl)ethyl]-1H-pyrazole-5-carboxamide]	0.398
Cc1cc(C)cc(Nc2nccc(-c3cc(C(=O)NCCNC(C)C)n(C)n3)n2)c1 [Example 12, 3-{2-[(3,5-dimethylphenyl)amino]pyrimidin-4-yl}-1-methyl-N-[2-(propan-2-ylamino)ethyl]-1H-pyrazole-5-carboxamide hydrochloride]	0.398
Cc1cc(C)cc(Nc2nccc(-c3cc(C(N)=O)n(C)n3)n2)c1 [Example 13, 3-{2-[(3,5-dimethylphenyl)amino]pyrimidin-4-yl}-1-methyl-1H-pyrazole-5-carboxamide]	0.226
Cc1cc(C)cc(Nc2nccc(-c3cc(C(=O)N(C)C)n(C)n3)n2)c1 [Example 15, 3-{2-[(3,5-dimethylphenyl)amino]pyrimidin-4-yl}-N,N,1-trimethyl-1H-pyrazole-5-carboxamide]	0.358
COCCNC(=O)c1cc(-c2ccnc(Nc3cc(C)cc(C)c3)n2)nn1C [Example 16, 3-{2-[(3,5-dimethylphenyl)amino]pyrimidin-4-yl}-N-(2-methoxyethyl)-1-methyl-1H-pyrazole-5-carboxamide]	0.272
CN(C)CCNC(=O)c1cc(-c2ccnc(Nc3cc(C(F)(F)F)cc(C(F)(F)F)c3)n2)nn1C [Example 18, 3-(2-{[3,5-bis(trifluoromethyl)phenyl]amino}pyrimidin-4-yl)-N-[2-(dimethylamino)ethyl]-1-methyl-1H-pyrazole-5-carboxamide hydrochloride]	0.491
C[C@@H](CO)NC(=O)c1cc(-c2ccnc(Nc3cc(C(F)(F)F)cc(C(F)(F)F)c3)n2)nn1C [Example 19, 3-(2-{[3,5-bis(trifluoromethyl)phenyl]amino}pyrimidin-4-yl)-N-[(2S)-1-hydroxypropan-2-yl]-1-methyl-1H-pyrazole-5-carboxamide]	0.104
Cc1cc(C)cc(Nc2nccc(-c3cc(C(=O)Nc4cc[nH]n4)n(C)n3)n2)c1 [Example 20, 3-{2-[(3,5-dimethylphenyl)amino]pyrimidin-4-yl}-1-methyl-N-(1H-pyrazol-3-yl)-1H-pyrazole-5-carboxamide]	0.109
Cc1cc(C)cc(Nc2nccc(-c3cc(C(=O)N4CCN(C)CC4)n(C)n3)n2)c1 [Example 21, (3-{2-[(3,5-dimethylphenyl)amino]pyrimidin-4-yl}-1-methyl-1H-pyrazol-5-yl)(4-methylpiperazin-1-yl)methanone]	0.238
Cc1cc(C)cc(Nc2nccc(-c3cc(C(=O)NCc4cncn4C)n(C)n3)n2)c1 [Example 25, 3-{2-[(3,5-dimethylphenyl)amino]pyrimidin-4-yl}-1-methyl-N-[(1-methyl-1H-imidazol-5-yl)methyl]-1H-pyrazole-5-carboxamide]	0.249
Cc1cc(C)cc(Nc2nccc(-c3cc(C(=O)NC4CN5CCC4CC5)n(C)n3)n2)c1 (stereo not drawn) [Example 31, N-(1-azabicyclo[2.2.2]oct-3-yl)-3-{2-[(3,5-dimethylphenyl)amino]pyrimidin-4-yl}-1-methyl-1H-pyrazole-5-carboxamide]	0.139
Cc1cc(C)cc(Nc2nccc(-c3cc(C(=O)N4CCNCC4)n(C)n3)n2)c1 [Example 36, (3-{2-[(3,5-dimethylphenyl)amino]pyrimidin-4-yl}-1-methyl-1H-pyrazol-5-yl)(piperazin-1-yl)methanone hydrochloride]	0.169
Cc1cc(C)cc(Nc2nccc(-c3cc(C(=O)N[C@@H](C)C(F)(F)F)n(C)n3)n2)c1 [Example 42, 3-{2-[(3,5-dimethylphenyl)amino]pyrimidin-4-yl}-1-methyl-N-[(2S)-1,1,1-trifluoropropan-2-yl]-1H-pyrazole-5-carboxamide]	0.474
CC[C@H](NC(=O)c1cc(-c2ccnc(Nc3cc(C)cc(C)c3)n2)nn1C)C(F)(F)F [Example 55, 3-{2-[(3,5-dimethylphenyl)amino]pyrimidin-4-yl}-1-methyl-N-[(2S)-1,1,1-trifluorobutan-2-yl]-1H-pyrazole-5-carboxamide]	0.324
CC[C@@H](NC(=O)c1cc(-c2ccnc(Nc3cc(C)cc(C)c3)n2)nn1C)C(F)(F)F [Example 56, 3-{2-[(3,5-dimethylphenyl)amino]pyrimidin-4-yl}-1-methyl-N-[(2R)-1,1,1-trifluorobutan-2-yl]-1H-pyrazole-5-carboxamide]	0.081
COc1cc(Nc2nccc(-c3cc(C(=O)N[C@@H](C)C(=O)N(C)C)n(C)n3)n2)cc(OC)c1 [Example 71, 3-{2-[(3,5-dimethoxyphenyl)amino]pyrimidin-4-yl}-N-[(2S)-1-(dimethylamino)-1-oxopropan-2-yl]-1-methyl-1H-pyrazole-5-carboxamide]	0.452
Cc1cc(C)cc(Nc2nccc(-c3cc(C(=O)N4CC[C@@H](O)C4)n(C)n3)n2)c1 [Example 85, (3-{2-[(3,5-dimethylphenyl)amino]pyrimidin-4-yl}-1-methyl-1H-pyrazol-5-yl)[(3R)-3-hydroxypyrrolidin-1-yl]methanone]	0.209

The next molecules have a lower IC50 than those just listed; values first:

IC50 [µM]	SMILES
0.06	Cc1cc(C)cc(Nc2nccc(-c3cc(C(=O)NCCF)n(C)n3)n2)c1 [Example 17, 3-{2-[(3,5-dimethylphenyl)amino]pyrimidin-4-yl}-N-(2-fluoroethyl)-1-methyl-1H-pyrazole-5-carboxamide]
0.074	Cc1cc(C)cc(Nc2nccc(-c3cc(C(=O)N[C@@H]4CCCC[C@H]4O)n(C)n3)n2)c1 [Example 32, 5-[2-(3,5-Dimethyl-phenylamino)-pyrimidin-4-yl]-2-methyl-2H-pyrazole-3-carboxylic acid ((1R,2R)-2-hydroxy-cyclohexyl)-amide]
0.009	COc1cc(Nc2nccc(-c3cc(C(=O)N[C@H]4CCCC[C@H]4N)n(C)n3)n2)cc(C(F)(F)F)c1 [Example 37, N-[(1S,2R)-2-aminocyclohexyl]-3-(2-{[3-methoxy-5-(trifluoromethyl)phenyl]amino}pyrimidin-4-yl)-1-methyl-1H-pyrazole-5-carboxamide hydrochloride]
0.005	Cn1nc(-c2ccnc(Nc3ccc4c(c3)c(Cl)cn4C)n2)cc1C(=O)N[C@H]1CCCC[C@H]1N [Example 38, N-[(1S,2R)-2-aminocyclohexyl]-3-{2-[(3-chloro-1-methyl-1H-indol-5-yl)amino]pyrimidin-4-yl}-1-methyl-1H-pyrazole-5-carboxamide hydrochloride]
0.077	Cc1cccc(Nc2nccc(-c3cc(C(=O)N[C@H](CO)C(C)C)n(C)n3)n2)c1 [Example 41, N-[(2S)-1-hydroxy-3-methylbutan-2-yl]-1-methyl-3-{2-[(3-methylphenyl)amino]pyrimidin-4-yl}-1H-pyrazole-5-carboxamide]
0.065	Cc1cc(C)cc(Nc2nccc(-c3cc(C(=O)NCC(C)(C)C)n(C)n3)n2)c1 [Example 45, 3-{2-[(3,5-dimethylphenyl)amino]pyrimidin-4-yl}-N-(2,2-dimethylpropyl)-1-methyl-1H-pyrazole-5-carboxamide]
0.049	Cc1cc(C)cc(Nc2nccc(-c3cc(C(=O)NCC(C)C)n(C)n3)n2)c1 [Example 46, 3-{2-[(3,5-dimethylphenyl)amino]pyrimidin-4-yl}-1-methyl-N-(2-methylpropyl)-1H-pyrazole-5-carboxamide]
0.04	Cc1cc(C)cc(Nc2nccc(-c3cc(C(=O)NCC4CC4)n(C)n3)n2)c1 [Example 47, N-(cyclopropylmethyl)-3-{2-[(3,5-dimethylphenyl)amino]pyrimidin-4-yl}-1-methyl-1H-pyrazole-5-carboxamide]
0.015	Cc1cccc(Nc2nccc(-c3cc(C(=O)N[C@H]4CCCC[C@@H]4N)n(C)n3)n2)c1 [Example 53, N-[(1S,2S)-2-aminocyclohexyl]-1-methyl-3-{2-[(3-methylphenyl)amino]pyrimidin-4-yl}-1H-pyrazole-5-carboxamide]
0.059	COc1cc(Nc2nccc(-c3cc(C(=O)N[C@@H](C)CN4CCCC4)n(C)n3)n2)cc(OC)c1OC [Example 58, 1-methyl-N-[(2S)-1-(pyrrolidin-1-yl)propan-2-yl]-3-{2-[(3,4,5-trimethoxyphenyl)amino]pyrimidin-4-yl}-1H-pyrazole-5-carboxamide]
< 0.004	C[C@@H](CN1CCC1)NC(=O)c1cc(-c2ccnc(Nc3ccc4c(c3)c(Cl)cn4C)n2)nn1C [Example 59, N-[(2S)-1-(azetidin-1-yl)propan-2-yl]-3-{2-[(3-chloro-1-methyl-1H-indol-5-yl)amino]pyrimidin-4-yl}-1-methyl-1H-pyrazole-5-carboxamide]
0.004	CC(C)[C@@H](CN1CCC1)NC(=O)c1cc(-c2ccnc(Nc3cc(Cl)cc(Cl)c3)n2)nn1C [Example 61, N-[(2S)-1-(azetidin-1-yl)-3-methylbutan-2-yl]-3-{2-[(3,5-dichlorophenyl)amino]pyrimidin-4-yl}-1-methyl-1H-pyrazole-5-carboxamide]
0.032	COc1cccc(Nc2nccc(-c3cc(C(=O)N[C@@H](C)CN4CCCC4)n(C)n3)n2)c1 [Example 70, 3-{2-[(3-methoxyphenyl)amino]pyrimidin-4-yl}-1-methyl-N-[(2S)-1-(pyrrolidin-1-yl)propan-2-yl]-1H-pyrazole-5-carboxamide]

From patent publication US20240285621A1, “PYRAZOLYL-PYRIMIDINE DERIVATIVES AS KINASE INHIBITORS” (NERVIANO MEDICAL SCIENCES S.R.L., priority 2020, published 2024)
